Data set [1] has as its system HCT-116. Kind of data set: Antimigratory activity against human HCT116 cells assessed as wound healing rate incubated for 24 hrs by wound healing assay. The class given is functional, cell-based.
The nature of data set [2]: Tmax in mouse at 10 mg/kg, ip measured upto 24 hrs. The class given is ADME, organism-based. As to conditions: in vivo.
The nature of data set [3]: Stability of the compound in mouse serum assessed as compound remaining measured upto 120 mins. The data set is classed as ADME, cell-free. As to conditions: read-out: Stability.
For the next data set, the system named is U-87 MG. Kind of data set: Antiproliferative activity against human U-87 MG cells measured after 72 hrs by CCK-8 cells. The class given is functional, cell-based, U-87MG ATCC.
Data set [4] can be described thus: Toxicity in mouse xenografted with human HCT-116 cells assessed as organ damage by measuring change in spleen at 10 mg/kg, ip twice a day administered 21 consecutive days. The settings on record: in vivo. The data set is classed as organism-based. (Xenograft models place foreign cells or tissue in a host animal.)
Data set [5] in a line: Toxicity in mouse xenografted with human HCT-116 cells assessed as organ damage by measuring change in kidney at 10 mg/kg, ip twice a day administered 21 consecutive days. The data set is classed as organism-based. As to conditions: in vivo.
A short description of data set [6]: Half life in mouse at 20 mg/kg, ip measured upto 24 hrs. The data set is classed as ADME, organism-based. As to conditions: in vivo.
The test system of a further data set is A549. Kind of data set: Antiproliferative activity against human A549 cells measured after 72 hrs by CCK-8 cells. The data set is classed as functional, cell-based. The settings on record: A549, 72 h.
Data set [7] deals with HCT-116. Kind of data set: Induction of apoptosis in human HCT116 cells assessed as accumulation of cells at G2 phase at 0.05 uM measured after 48 hrs by Annexin V-PI Flow cytometry assay (reference value: 17.63%). The class given is functional.
Data set [8] deals with HCT-116. Kind of data set: Induction of DNA damage in human HCT-116 cells assessed as increase in gamma-H2AX level at above 0.02 to 0.5 uM incubated for 12 hrs by Western blotting analysis. The settings on record: dose 0.02-0.5 µM. The data set is classed as functional, cell-based. For orientation: A western blot detects proteins with antibodies after separation by electrophoresis.

Data set [9] can be described thus: Tmax in mouse at 20 mg/kg, ip measured upto 24 hrs. The data set is classed as ADME, organism-based. As to conditions: in vivo.
Data set [10] in a line: Toxicity in mouse xenografted with human HCT-116 cells assessed as organ damage by measuring change in lungs at 10 mg/kg, ip twice a day administered 21 consecutive days. As to conditions: in vivo. The data set is classed as organism-based.
Data set [11] relates to HCT-116. Kind of data set: Induction of apoptosis in human HCT116 cells assessed as accumulation of cells at S phase at 0.02 uM measured after 48 hrs by Annexin V-PI Flow cytometry assay (reference value: 31.25%). The class given is functional. On the technique in general: Flow cytometry measures light scatter and fluorescence of single cells or particles in a stream.
Data set [12] addresses T1, DNA topoisomerase 1 (Homo sapiens) (UniProt P11387).
T1 sequence (whole entry): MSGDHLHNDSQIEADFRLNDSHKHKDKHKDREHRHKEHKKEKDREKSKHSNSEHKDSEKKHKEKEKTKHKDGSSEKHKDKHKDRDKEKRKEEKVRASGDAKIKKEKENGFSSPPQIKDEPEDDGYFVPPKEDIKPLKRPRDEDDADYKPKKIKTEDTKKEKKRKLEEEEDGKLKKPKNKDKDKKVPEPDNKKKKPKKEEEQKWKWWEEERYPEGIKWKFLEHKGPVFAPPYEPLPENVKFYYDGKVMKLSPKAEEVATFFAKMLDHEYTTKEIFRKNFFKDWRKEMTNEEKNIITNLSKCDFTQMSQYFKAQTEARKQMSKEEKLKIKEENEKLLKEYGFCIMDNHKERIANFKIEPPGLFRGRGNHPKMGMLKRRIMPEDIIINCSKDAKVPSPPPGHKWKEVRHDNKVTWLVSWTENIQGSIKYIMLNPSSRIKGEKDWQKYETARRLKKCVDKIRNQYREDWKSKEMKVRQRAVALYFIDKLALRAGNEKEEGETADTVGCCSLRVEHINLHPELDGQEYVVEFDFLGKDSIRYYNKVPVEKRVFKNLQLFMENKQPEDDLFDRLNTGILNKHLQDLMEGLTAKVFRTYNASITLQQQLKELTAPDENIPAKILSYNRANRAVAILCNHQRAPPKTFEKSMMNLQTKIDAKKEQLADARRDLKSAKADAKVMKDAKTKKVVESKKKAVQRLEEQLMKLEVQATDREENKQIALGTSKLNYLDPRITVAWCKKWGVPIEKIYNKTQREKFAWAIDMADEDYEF
Kind of data set: Inhibition of DNA topoisomerase I (unknown origin) mediated supercoiled DNA relaxation activity at 100 uM by agarose gel electrophoresis analysis.

Data set [13] is described as follows: Cmax in mouse at 10 mg/kg, ip measured upto 24 hrs. As to conditions: in vivo. The class given is ADME, organism-based.
Data set [14] concerns HCT-116. Kind of data set: Antiproliferative activity against human HCT116 cells measured after 72 hrs by CCK-8 cells. The class given is functional, cell-based. As to conditions: HCT-116, 72 h.
For data set [15], the system named is HCT-116. Kind of data set: Induction of apoptosis in human HCT116 cells assessed as accumulation of cells at G2 phase at 0.2 uM measured after 48 hrs by Annexin V-PI Flow cytometry assay (reference value: 17.63%). The class given is functional.
For data set [16], the system named is HCT-116. Kind of data set: Induction of apoptosis in human HCT116 cells assessed as accumulation of cells at G2 phase at 0.1 uM measured after 48 hrs by Annexin V-PI Flow cytometry assay (reference value: 17.63%). The class given is functional.
Data set [17] concerns HCT-116. Kind of data set: In vivo antitumor effect in human HCT-116 cells xenografted mouse model assessed as induction of apoptosis in tumor at 10 to 20 mg/kg, ip twice a day administered 21 consecutive days by TUNEL based assay. The data set is classed as functional, organism-based. As to conditions: dose 10-20 mg/kg.
A short description of data set [18]: Half life in mouse at 10 mg/kg, ip measured upto 24 hrs. The class given is ADME, organism-based. The settings on record: in vivo.
Data set [19] deals with HCT-116. Kind of data set: Antiproliferative activity against human HCT116 cells in presence of 10 uM phloretin measured after 72 hrs by CCK-8 assay. The data set is classed as functional, cell-based. The settings on record: HCT-116, 72 h.
Data set [20] concerns HCT-116. Kind of data set: In vivo antitumor effect in human HCT-116 cells xenografted mouse model assessed as inhibition of tumor cell proliferation by measuring Ki67 at 10 to 20 mg/kg, ip twice a day administered 21 consecutive days by TUNEL based assay. As to conditions: dose 10-20 mg/kg. The class given is functional, organism-based.

Molecules are shown by their SMILES. Calls of active or inactive are those of the source. The calls are words filed in the database; no cut-off is given here.

For the molecule `CN1c2ccc(F)cc2C(=O)N2CCc3c([nH]c4ccc(O[C@@H]5O[C@H](CO)[C@@H](O)[C@H](O)[C@H]5O)cc34)[C@H]21`, the Activity entry in the data set with HCT-116 [1] is “Dose-Dependent Effect”; in data set [4], “Non-Toxic”; in data set [5], “Non-Toxic”; in the data set on HCT-116 [7], 57.53%; in [10], “Non-Toxic”; in the data set with HCT-116 [11], 26.54%. For the same molecule, the values for the Activity in the data set with HCT-116 [15] and in the data set with HCT-116 [16] were 92.85% and 88.98%, respectively. In addition, the time to peak (Tmax) in data set [2] and in [9] was 30 min each time. Besides, the remaining at 2 h in [3] stood at 100%. Besides, the half-inhibitory concentration (IC50) – broadly, the concentration that gives 50% inhibition – worked out at 64 nM in the data set with U-87 MG, 64 nM with A549, 64 nM in the data set on HCT-116 [14] and 430 nM in the data set with HCT-116 [19]. For the same molecule, the half-life (commonly the time in which the quantity being followed falls by half) in data set [6] is 372 min; in [18], 145 min. Further, the outcome in the data set on HCT-116 [8], in the data set on HCT-116 [17] and in the data set on HCT-116 [20] was Active. Moreover, in data set [12], the inhibition entry was “Active”. Also, in data set [13], the highest level (Cmax) was 4630 ng/mL.

The values above are taken from ChEMBL document CHEMBL5543158, “Design of Evodiamine-Glucose Conjugates with Improved In Vivo Antitumor Activity” (J Med Chem, 2024).
